Laboratory results as given in patent US7960374B2, “Tricyclic compounds, compositions, and methods useful in the treatment or prophylaxis of 5-HT6 receptor-related disorders” (Proximagen Limited, priority 2006, dated 2011).
pIC50, pKi: −log10 of the molar value.

Experiments:
human 5-HT6 receptor [1] = molecular target: T1, human 5-HT6 receptor (Homo sapiens, UniProt P50406); assay: 5-HT6 receptor binding assay ([3H]-LSD, SPA); conditions: for pKi: [3H]-LSD as labeled ligand, membranes of HEK293 cells expressing human 5-HT6, read-out: Binding affinity (Ki) at the human 5-HT6 receptor
T1 construct: expressed in transfected cells; host or cells: HEK293

human 5-HT6 receptor [2] = molecular target: T1, human 5-HT6 receptor; assay: 5-HT6 intrinsic activity assay (inhibition of 5-HT induced increase in cAMP); assay type: cell-based; conditions: read-out: Antagonist potency at the human 5-HT6 receptor, fKi (= IC50,corr)
Procedure: (b) 5-HT6 Intrinsic Activity Assay
Briefly, HEK293/5-HT6 cells were seeded in polylysine coated 96-well plates at a density of 25,000/well and grown in DMEM (Dulbecco's Modified Eagle Medium) (without phenol-red) containing 5% dialyzed Foetal Bovine Serum for 48 h at 37° C. in a 5% CO2 incubator. The medium was then aspirated and replaced by 0.1 ml assay medium (Hanks Balance Salt Solution containing 20 mM HEPES, 1.5 mM isobutylmethylxanthine and 1 mg/ml bovine serum albumin). After addition of test substances, 50 μl dissolved in assay medium, the cells were incubated for 10 min at 37° C. in a 5% CO2 incubator. The medium was again aspirated and the cAMP content was determined using a radioactive cAMP kit (Amersham Pharmacia Biotech, BIOTRAK RPA559).

T1 sequence (P50406 whole entry): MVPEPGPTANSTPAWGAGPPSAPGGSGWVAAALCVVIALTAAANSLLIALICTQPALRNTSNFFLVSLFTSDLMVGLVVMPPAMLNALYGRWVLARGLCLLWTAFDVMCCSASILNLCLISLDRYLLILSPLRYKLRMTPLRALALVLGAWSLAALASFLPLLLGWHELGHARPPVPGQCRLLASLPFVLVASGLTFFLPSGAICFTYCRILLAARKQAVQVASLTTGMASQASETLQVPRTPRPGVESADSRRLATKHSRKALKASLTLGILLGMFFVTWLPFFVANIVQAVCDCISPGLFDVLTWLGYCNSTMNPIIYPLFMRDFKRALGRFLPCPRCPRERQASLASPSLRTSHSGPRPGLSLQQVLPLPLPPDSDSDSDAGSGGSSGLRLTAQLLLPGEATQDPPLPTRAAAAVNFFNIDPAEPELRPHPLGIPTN

pKi (human 5-HT6 receptor [1])	pIC50 (human 5-HT6 receptor [2])	Hill coefficient (human 5-HT6 receptor [1]; three experiments)	SMILES
8.70	8.52	–	CN1CCOc2ccc3c(ccn3S(=O)(=O)c3ccccc3)c2C1 [Example 5, 2-Methyl-8-(phenylsulfonyl)-1,3,4,8-tetrahydro-2H-[1,4]oxazepino[6,7-e]indole]
–	–	0.94 (SD 0.09)	NCCc1c[nH]c2ccc(O)cc12 [Example 5-HT, 5-hydroxytryptamine, reference compound]
9.00	9.00	–	CN1CCOc2ccc3c(ccn3S(=O)(=O)c3ccc4ncsc4c3)c2C1 [Example 10, 8-(1,3-Benzothiazol-6-ylsulfonyl)-2-methyl-1,3,4,8-tetrahydro-2H-[1,4]oxazepino[6,7-e]indole]
8.70	8.30	–	O=S(=O)(c1ccccc1)n1ccc2c3c(ccc21)OCCNC3 [Example 49, 8-(Phenylsulfonyl)-1,3,4,8-tetrahydro-2H-[1,4]oxazepino[6,7-e]indole]
